The source of these data is patent publication US20190174768A1 (priority 2016, published 2019).

Test [1] relates to F. graminearum. The format is cell-based, Fusarium graminearum.
Test [2] has as its system Venturia inaequalis Strain EUB04. In words: In planta test on apple plantlets against apple scab. The format is in vivo. The note with it: reference fungicide mode, D9 to D21. As to the method:
The in planta tests on apple plantlets were carried out according to the following protocol:
2 modes tested: spraying of extract D at 5 g/L 2 hours before inoculation (ExtractBefore) and spraying of extract D at 5 g/L 3 hours after inoculation (ExtractAfter)
3 control modes: • 2 untreated control modes (spraying of water on the same dates as the product) (WaterBefore and WaterAfter) • 1 mode with a reference fungicide (captan)
Artificial inoculation of plants with a Venturia inaequalis strain at 100 000 spores/ml.
Scab symptoms noted at 4 dates post-inoculation (visual estimate of % scab area)
Biological material: • Plantlets derived from roughly 3-week-old apple seedlings in soil balls—from pips taken from the Gala variety (apples harvested in an orchard planted with Gala and Elstar) • Venturia inaequalis spores on cellophane—Strain EUB04
3 boxes of 12 plantlets for each mode
D+9, D+14, D+17, D+21: Notation of percentage of leaf area affected (from 0 to 100% in 10% increments)
Since the normality and homogeneity conditions of the variances of the residues were not met, a non-parametric Kruskal-Wallis test was performed. This test being significant, the medians of the different modes were compared pairwise using the Nemenyi test based on Tukey's distance. These analyses were carried out with the R software (version 3.1.2).

Consider `C=C/C=C/CC/C=C/C=C/C=C/CC/C=C/[C@H](O)[C@H](O)[C@@H]1O[C@@H]([C@H](O)[C@H](O)C(=C)CC[C@@H](O)[C@H]2C[C@@H](O)[C@@H](O)[C@H]([C@@H](O)[C@H](O)/C=C(\C)CCC(O)CC(O)C(O)C(C)CC(O)C(O)CC(C)CCC(O)CC(=O)CC(O)CCCC(O)CCCCC(O)CO)O2)C[C@@H](O)[C@H]1O` (some centres unmarked) [amphidinol 18], for which the “antifungal activity against F. graminearum” value in test [1] is recorded as “has antifungal activity against F. graminearum”.

In the case of `O=C1C2CC=CCC2C(=O)N1SC(Cl)(Cl)Cl` (centres unmarked) [captan], the scab development result in test [2] is recorded as “no scab development was observed”.
